Earlier results as cited in US20240180834A1, “DEVELOPMENT OF COVID-19 VACCINE USING A DUAL TLR LIGAND LIPOSOME ADJUVANT” (priority 2021, published 2024).

Details: earlier work

## CCCCCCCCCCCCCCCCCC(=O)NCCCCOn1c(CCCC)nc2c(N)nc3ccccc3c21 [3M-052, N-[4-(4-amino-2-butylimidazo[4,5-c]quinolin-1-yl)oxybutyl]octadecanamide]
  type of immune response elicited by the TLR agonist in the nanoliposome adjuvant: elicited a robust systemic Th1 response
